# Data from publication PMC4790851, “Iminosugars Inhibit Dengue Virus Production via Inhibition of ER Alpha-Glucosidases—Not Glycolipid Processing Enzymes” (PLoS Neglected Tropical Diseases, 2016).
# How the values were obtained:
# Rat intestinal maltase = test: In vitro enzyme inhibition, glucose release from disaccharide; assay type: biochemical; settings: concentration required to inhibit the enzyme to 50% activity
# Protocol: Inhibition of glucosidases and glycosidases was detected as previously described. Briefly, assays were performed at the optimum pH of each enzyme, and appropriate disaccharide was provided as substrate for glucosidase release assays. Release of D-glucose was measured using a Glucose B-test (Wako Diagnostics). Appropriate p-nitrophenyl glycoside was added as substrate for additional glycosidase assays, and assays were stopped by adding 400 mM Na2CO3. Release of p-nitrophenol was measured spectrophotometrically at 400 nm.
# [1] = target: Human lysosome α-glucosidase (Homo sapiens, UniProt P10253); test: In vitro enzyme inhibition; assay type: biochemical; settings: concentration required to inhibit the enzyme to 50% activity; read-out: IC50
# [2] = test system: monosialodihexosylganglioside (GM3) production; test: Glycosphingolipid analysis: GM3 levels in MDMΦs by NP-HPLC; assay type: cell-based, human; settings: 48 h; for GM3 production (%): uninfected MDMΦ, normalized to untreated controls, mean ± SD, min. 3 donors
# ER α-glucosidase I = target: T1, ER α-glucosidase I (Homo sapiens, UniProt Q13724); test: Free oligosaccharide analysis in MDMΦs: Glc3Man5GlcNAc1; assay type: cell-based; settings: 48 h; for accumulation of Glc3Man5GlcNAc1: MDMΦs; for FOS representative of ER α-glucosidase I inhibition (Glc3Man5GlcNAc1): MNTD of iminosugar (NB-DNJ 100 μM), uninfected MDMΦs
# T1 construct: endogenous in cells; host or cells: primary human monocyte-derived macrophages (MDMΦ)
# T1 sequence (Q13724 1-837): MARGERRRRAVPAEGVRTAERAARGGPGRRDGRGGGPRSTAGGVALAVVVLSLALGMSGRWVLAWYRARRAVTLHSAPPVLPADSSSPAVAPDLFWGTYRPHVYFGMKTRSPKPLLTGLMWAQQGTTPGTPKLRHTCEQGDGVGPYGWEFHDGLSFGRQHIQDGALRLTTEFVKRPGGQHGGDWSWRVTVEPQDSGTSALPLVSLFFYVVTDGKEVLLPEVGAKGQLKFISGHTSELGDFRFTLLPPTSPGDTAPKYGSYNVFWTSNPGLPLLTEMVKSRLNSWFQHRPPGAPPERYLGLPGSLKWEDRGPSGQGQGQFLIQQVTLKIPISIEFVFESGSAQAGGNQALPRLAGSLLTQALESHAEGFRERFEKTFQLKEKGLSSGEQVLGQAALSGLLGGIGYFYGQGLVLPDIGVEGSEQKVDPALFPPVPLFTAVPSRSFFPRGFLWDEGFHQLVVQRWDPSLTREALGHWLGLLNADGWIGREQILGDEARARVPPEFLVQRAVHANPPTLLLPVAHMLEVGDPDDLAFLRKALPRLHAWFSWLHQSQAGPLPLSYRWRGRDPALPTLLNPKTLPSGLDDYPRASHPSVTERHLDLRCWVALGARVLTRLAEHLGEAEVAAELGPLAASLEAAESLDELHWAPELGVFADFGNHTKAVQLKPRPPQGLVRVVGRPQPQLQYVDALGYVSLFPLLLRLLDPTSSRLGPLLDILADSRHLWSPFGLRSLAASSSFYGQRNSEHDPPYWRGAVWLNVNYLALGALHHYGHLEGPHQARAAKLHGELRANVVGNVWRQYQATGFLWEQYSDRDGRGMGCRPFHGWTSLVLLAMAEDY
# Protocol: MDMΦ were infected with DENV2 16681 diluted to a multiplicity of infection (MOI) of 1 in X-VIVO10 without supplements for 90 minutes (20°C, with rocking). Upon removal of virus, fresh MDMΦ growth medium without IL-4 but containing serial dilutions of drug or control was placed on the cells, and cells were incubated for 48 hours (37°C, 5% CO2). For collection of infectious virus, supernatant was harvested and centrifuged for 5 minutes (room temperature, 400 x g) to pellet any cells/debris, and supernatants were aliquoted and stored at -80°C until analysis by plaque assay. In the case of FOS and GSL assays where MDMΦ were uninfected, treatments were essentially as above except that no virus was added and cells were washed three times with sterile PBS after 24 or 48 hours as per sample time point. On the third wash, cells were removed from tissue culture plastic by mechanical disruption (scraping) and transferred to microcentrifuge tubes for centrifugation (room temperature, 4000 x g, 5 minutes). Cells were lysed by three cycles of freeze-thawing (alternating room temperature and –80°C) in deionised H2O and stored at –80°C for subsequent protein, FOS, or GSL assay.
# MDMΦ FOS were detected as previously described by Alonzi et al.. Cells were cultured in 6-well plates as described above, and protein lysates were prepared according to the freeze/thaw protocol. Following cell lysis, samples were subjected to mixed-bed ion exchange and then lyophilised. FOS were labelled with 2-aminobenzoic acid (2-AA) and purified using a DPA-6S column (Sigma). Unconjugated 2-AA was removed by phase splitting with ethyl acetate, and samples were lyophilised and resuspended in water and then purified using a con-A column. Glycans were separated by normal phase-high performance liquid chromatography (NP-HPLC), and peak area was used to assess molar quantity in comparison to standards of known identity and quantity. FOS generation was normalised to protein concentration based on a modified Bradford assay as previously described. Briefly, cell lysates were added in a 1:1 volumetric ratio to 1x Bradford Quick Start Reagent (Bio-Rad) and incubated at 20°C for 5 minutes. Absorbance values (Axxx) at 595 nm and 420 nm were measured, and the ratio of A595 to A420 was used to determine protein concentration in comparison to a serially diluted standard of bovine serum albumin.
Compound,IC50 (Rat intestinal maltase) [µM],IC50 [1] [µM],GM3 production (%) ([2]; 100 μM (MNTD)),"accumulation of Glc3Man5GlcNAc1 (ER α-glucosidase I; 1 μM, all donors)",accumulation of Glc3Man5GlcNAc1 (ER α-glucosidase I; 31.6 and 100 μM),"inhibition at 10 µM ([2]; Homo sapiens, 10 μM, MDMΦs) [%]","EC50 ([2]; Homo sapiens, titration 1 to 100 μM, three donors, read-out: 95% CI for GM3 EC50) [µM]",FOS representative of ER α-glucosidase I inhibition (Glc3Man5GlcNAc1) (ER α-glucosidase I),GM3 production (%) ([2]; 31.6 μM (MNTD))
"CCCC(=O)O[C@H]1CN2CC[C@H](O)[C@@H]2[C@@H](O)[C@@H]1O [Celgosivir, 6-O-butanoyl-castanospermine]",17,93.2,100.9 ± 4.1,not Glc3Man5GlcNAc1,increasing accumulation of Glc3Man5GlcNAc1,,,,
"CCCCN1C[C@H](O)[C@@H](O)[C@H](O)[C@H]1CO [NB-DNJ, N-butyl-DNJ]",1.1,0.27,8.8 ± 3.6,not Glc3Man5GlcNAc1,,90 to 95,0.8 to 1.37,accumulation of peaks representative of inhibition of both α-glucosidases,
CCCCCCCCCN1C[C@H](O)[C@@H](O)[C@@H](O)[C@H]1CO [NN-DGJ],> 1000,> 1000,,,,,,fail to produce detectable ER α-glucosidase associated FOS,4.9 ± 1.9
CCCCN1C[C@H](O)[C@@H](O)[C@@H](O)[C@H]1CO [NB-DGJ],> 1000,> 1000,7.3 ± 1.9,,,,,fail to produce detectable ER α-glucosidase associated FOS,
